≈ marks a conversion by molar mass, not a printed value. Read-outs that look alike come from different tables or passages of the source.
How the values were obtained:
[1] = tested on: methicillin-resistant Staphylococcus aureus (MRSA; from the Massachusetts General Hospital, USA); experiment: Antibacterial activity (MIC) against MRSA clinical isolate; assay type: cell-based; settings: clinical isolate of MRSA, agar dilution
From the text: Compounds of this invention can have useful activity against a variety of pathogenic microorganisms. The in vitro activity of compounds of this invention can be assessed by standard testing procedures such as the determination of minimum inhibitory concentration (MIC) by agar dilution as described in “Approved Standard. Methods for Dilution Antimicrobial Susceptibility Tests for Bacteria That Grow Aerobically”, 3rd. ed., published 1993 by the National Committee for Clinical Laboratory Standards, Villanova, Pennsylvania, USA. Minimum inhibitory concentration (MIC) refers to the lowest concentration of drug (μg/mL) that inhibits visible growth of the organism. Lower MIC values indicate a higher antibacterial activity. […] The useful activity of compounds of the present invention against a clinical isolate of methicillin-resistant Staphylococcus aureus (MRSA; from the Massachusetts General Hospital, USA) is illustrated by the MIC data of Table 1.

[2] = tested on: human CD34+ bone marrow cells; experiment: Bone marrow CD34+ cell growth inhibition (myelosuppressive potential), luminescence assay; assay type: cell-based; settings: normalized IC50 ratio over reference compound of Example 18; incubation 9-10 days; higher ratio = reduced myelosuppression
Method: Myelosuppressive potential (hematopoietic or bone marrow toxicity) was evaluated using human CD34^+ bone marrow cells, generally following methods described by Leach in International Patent Publication No. WO 2006/097828. Thus, an oxazolidinone compound was incubated with fresh human bone marrow cells for 9-10 days at 37° C. in 5% CO2 atmosphere. At end of the incubation period, the bone marrow toxicity was accessed by measuring inhibition (IC50, μg/mL) of CD34^+ cell growth using a luminescence assay. Lower IC50 value indicates a higher myelosuppression potential with enhanced probability of undesired adverse effects in vivo, while a higher IC50 value indicates reduced bone marrow toxicity. For comparison, the data are represented as normalized IC50 ratio indicating the fold of improvement over the reference compound of Example 18, based on IC50 for each compound in the CD34 assay.

[3] = tested on: S. aureus; experiment: In vivo antibacterial efficacy (ED50) in mice infected intraperitoneally; settings: Staphylococcus aureus, po
Method: Determination of in vivo efficacy was performed by inoculating mice intraperitoneally with cultures of infecting organism using Linezolid as control. The compound was dissolved in DMSO with 20% cyclodextrin, diluted with deionized water, and administered orally (p.o.). The mice were dosed 1 hours after infection. Mortality was recorded after 72 hours. The 50% effective dose (ED50, mg/kg) was calculated at the end of the test.

[4] = biological target: T1, Human monoamine oxidase (MOA) A type enzyme (Homo sapiens, UniProt P21397); experiment: Monoamine oxidase A inhibition (MAO-Glo assay); assay type: biochemical; settings: MAO-Glo kit
T1 construct: purchased BD Gentest
T1 sequence (P21397 1-527): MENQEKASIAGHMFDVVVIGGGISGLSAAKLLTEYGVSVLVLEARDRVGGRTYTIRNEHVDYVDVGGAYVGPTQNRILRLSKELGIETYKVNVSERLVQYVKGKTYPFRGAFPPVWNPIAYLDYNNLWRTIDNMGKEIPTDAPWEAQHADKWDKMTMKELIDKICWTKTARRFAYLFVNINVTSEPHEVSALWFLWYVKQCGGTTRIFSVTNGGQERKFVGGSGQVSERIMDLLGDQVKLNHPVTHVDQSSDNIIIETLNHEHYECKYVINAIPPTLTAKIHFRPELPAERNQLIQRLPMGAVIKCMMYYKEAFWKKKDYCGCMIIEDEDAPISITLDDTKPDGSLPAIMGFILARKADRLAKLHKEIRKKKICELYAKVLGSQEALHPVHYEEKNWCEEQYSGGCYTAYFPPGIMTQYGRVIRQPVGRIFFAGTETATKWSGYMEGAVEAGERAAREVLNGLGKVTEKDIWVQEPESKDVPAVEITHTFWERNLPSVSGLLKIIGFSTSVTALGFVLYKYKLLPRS
Method: Human monoamine oxidase (MOA) A type enzyme inhibition activity for select compounds was measured using a commercial MAO assay kit MAO-Glo™ from Promega Co. (USA). The assay was performed as described in the company's technical bulletin “MAO-Glo™ Assay”. The protocol involves an incubation of the MAO A enzyme (BD Gentest™) with a luminogenic MAO substrate to produce an enzymatic product which is converted to luciferin by a coupled reaction. The released luciferin undergoes further transformation to generate light that is detected and measured. The amount of the light is directly proportional to the activity of MAO. Percent inhibition at several concentrations is established relative to the uninhibited control rate, and the IC50 (μg/mL) values are calculated. […] The MAO inhibition data for select compound of this invention are illustrated in the Table 3 below.

[5] = mice, p.o., dosed 1 hour after infection, mortality recorded after 72 hours, read-out: ED50

Row | SMILES | MIC [1] [mg/L] | CD34 IC50 RATIO [2] | ED50 [3] [mg/kg] | ED50 [3, 5] [mg/kg] | IC50 [4] [µM]
1 | Cc1nnn(-c2ccc(-c3ccc4c(c3)C[C@H]3[C@H](CO)OC(=O)N43)cn2)c1C [Example 29] | 1 (≈ 2.65 µM) | 15.5 | – | – | –
2 | CC(=O)NC[C@@H]1OC(=O)N2c3ccc(-c4cccnc4)cc3C[C@H]12 [Example 18, reference compound] | – | 1 | – | – | –
3 | O=C1O[C@@H](CO)[C@@H]2Cc3cc(-c4ccc(-n5cc(CF)nn5)nc4)ccc3N12 [Example 27] | 0.25 (≈ 0.656 µM) | 1.6 | – | – | –
4 | Cn1nncc1-c1ccc(-c2ccc3c(c2)C[C@H]2[C@H](COP(=O)([O-])[O-])OC(=O)N32)cn1.[Na+].[Na+] [Example 33] | – | – | 9.1 | – | –
5 | O=C1OCCN1c1ccc(-c2ccc3c(c2)C[C@H]2[C@H](CO)OC(=O)N32)cn1 [Example 28] | 0.25 (≈ 0.681 µM) | 2.3 | – | – | –
6 | Cc1nnc(-c2ccc(-c3ccc4c(c3)C[C@H]3[C@H](COP(=O)([O-])[O-])OC(=O)N43)cn2)o1.[Na+].[Na+] [Example 32] | – | – | 10 | – | –
7 | Cc1cn(-c2ccc(-c3ccc4c(c3)C[C@H]3[C@H](CO)OC(=O)N43)cn2)nn1 [Example 30] | 0.25 (≈ 0.688 µM) | 4.1 | – | – | –
8 | Cn1nnnc1-c1ccc(-c2ccc3c(c2)C[C@H]2[C@H](CO)OC(=O)N32)cn1 [Example 2] | 0.5 (≈ 1.37 µM) | 3.3 | – | 6.1 | –
9 | Cn1ncc(-c2ccc(-c3ccc4c(c3)C[C@H]3[C@H](CO)OC(=O)N43)cn2)n1 [Example 22] | – | 8.3 | – | – | –
10 | N#CCc1cn(-c2ccc(-c3ccc4c(c3)C[C@H]3[C@H](COP(=O)([O-])[O-])OC(=O)N43)cn2)nn1.[Na+].[Na+] [Example 39] | – | – | – | 10 | –
11 | Cn1nnc(-c2ccc(-c3ccc4c(c3)C[C@H]3[C@H](CO)OC(=O)N43)cn2)n1 [Example 1] | 0.5 (≈ 1.37 µM) | 4.6 | – | 4.2 | –
12 | Cn1cc(-c2ccc(-c3ccc4c(c3)C[C@H]3[C@H](CO)OC(=O)N43)cn2)nn1 [Example 26] | 1 (≈ 2.75 µM) | 11.4 | – | – | –
13 | N#CCc1cn(-c2ccc(-c3ccc4c(c3)C[C@H]3[C@H](CO)OC(=O)N43)cn2)nn1 [Example 24] | 0.25 (≈ 0.644 µM) | 1.6 | – | 9.8 | –
14 | Cc1cnnn1-c1ccc(-c2ccc3c(c2)C[C@H]2[C@H](CO)OC(=O)N32)cn1 [Example 20] | – | 14.8 | – | – | –
15 | CC(=O)NC[C@H]1CN(c2ccc(N3CCOCC3)c(F)c2)C(=O)O1 [Linezolid, linezolid, reference compound] | 2 (≈ 5.93 µM) | – | – | – | 12.2
16 | Cn1nncc1-c1ccc(-c2ccc3c(c2)C[C@H]2[C@H](CO)OC(=O)N32)cn1 [Example 25] | 0.25 (≈ 0.688 µM) | 4.9 | – | 9.6 | –
17 | CC(=O)NC[C@@H]1OC(=O)N2c3ccc(-c4ccc(-c5cc(CO)on5)nc4)cc3C[C@H]12 [Example 17] | 1 (≈ 2.38 µM) | 4.5 | – | – | –
18 | CC(=O)NC[C@@H]1OC(=O)N2c3ccc(-c4ccc(-n5cc(C)nc5C)nc4)cc3C[C@H]12 [Example 15] | 4 (≈ 9.58 µM) | – | – | – | –
19 | CC(=O)NC[C@@H]1OC(=O)N2c3ccc(-c4ccc(-n5cc(CO)nn5)nc4)cc3C[C@H]12 [Example 13] | 1 (≈ 2.38 µM) | 2.5 | – | – | > 238
20 | N#CCn1nnc(-c2ccc(-c3ccc4c(c3)C[C@H]3[C@H](CO)OC(=O)N43)cn2)n1 [Example 21] | 0.25 (≈ 0.642 µM) | 2.3 | – | 9.5 | –
21 | CC(=O)NC[C@@H]1OC(=O)N2c3ccc(-c4ccc(-n5cc(C(C)(C)O)nn5)nc4)cc3C[C@@H]12 [Example 12] | 1 (≈ 2.23 µM) | 2.5 | – | – | –
22 | COC(=O)NC[C@@H]1OC(=O)N2c3ccc(-c4ccc(-c5nnn(C)n5)nc4)cc3C[C@@H]12 [Example 7] | 1 (≈ 2.37 µM) | – | – | – | > 237
23 | Cn1nnc(-c2ccc(-c3ccc4c(c3)C[C@H]3[C@H](COP(=O)([O-])[O-])OC(=O)N43)cn2)n1.[Na+].[Na+] [Example 5] | – | – | – | 5.6 | –
24 | O=C1O[C@@H](CO)[C@@H]2Cc3cc(-c4ccc(-n5cnnn5)nc4)ccc3N12 [Example 3] | 0.25 (≈ 0.714 µM) | – | – | 3.3 | –
25 | CC(=O)NC[C@@H]1OC(=O)N2c3ccc(-c4ccc(-n5cncn5)nc4)cc3C[C@H]12 [Example 16] | 0.5 (≈ 1.28 µM) | – | – | – | 43
26 | Cc1nnc(-c2ccc(-c3ccc4c(c3)C[C@H]3[C@H](CO)OC(=O)N43)cn2)o1 [Example 23] | 0.25 (≈ 0.686 µM) | 2.5 | – | 5.3 | –
27 | CC(=O)NC[C@@H]1OC(=O)N2c3ccc(-c4ccc(-c5noc(C)n5)nc4)cc3C[C@@H]12 [Example 14] | 1 (≈ 2.47 µM) | 2.0 | – | – | > 247
